Assay results from patent EP4748841A1, “BICYCLO[5,6] IMIDAZOLE PYRIMIDONE DERIVATIVE AND PREPARATION METHOD THEREFOR AND USE THEREOF” (Shujing Biopharma Co., Ltd, priority 2023, dated 2025).

Legend:
[1] = Liver microsome stability experiment (human); type: in vitro ADME; settings: for CLint scaled at 1 µM: human, liver microsomes, pH 7.4, Human liver microsomes; for half-life at 1 µM: pH 7.4, Human liver microsomes
Protocol: (§1) This experiment aimed to evaluate the phase I metabolic stability of the compounds of the present disclosure in liver microsomes of SD rats, beagle dogs, cynomolgus monkeys, and humans.
(§2) • (1) Buffer preparation: 73.21 g of dipotassium hydrogen phosphate trihydrate and 10.78 g of potassium dihydrogen phosphate were dissolved in 4000 mL of ultrapure water. The pH of the solution was adjusted to within 7.40 ± 0.10 using 10% phosphoric acid or 1 M potassium hydroxide, resulting in a final concentration of 100 mM. • (2) Solution preparation and dilution: Stock solutions of the test compounds at a concentration of 10 mM were prepared in dimethyl sulfoxide (DMSO) and stored at 4 °C, and they were diluted into 100 µM working solutions with pure acetonitrile when used. A stock solution of the control compound testosterone at a concentration of 10 mM was prepared in DMSO and stored at -20 °C, and it was diluted into a 400 µM working solution with pure acetonitrile when used. • (3) Termination solution preparation: The termination solution was an acetonitrile solution containing an internal standard (terfenadine). The prepared termination solution was stored in a refrigerator at 2-8 °C. • (4) Liver microsome solution preparation: Liver microsomes from various species (SD rat, beagle dog, cynomolgus monkey, and human) were diluted into 20× working solutions using 100 mM potassium phosphate buffer. The final concentration of the liver microsomes in the reaction system was 0.5 mg/mL. • (5) Reduced nicotinamide adenine dinucleotide phosphate (NADPH) regeneration system preparation: Appropriate amounts of nicotinamide adenine dinucleotide phosphate (NADP), glucose-6-phosphate (G6P), magnesium chloride (MgCl2), and glucose-6-phosphate dehydrogenase (G6PDH) were weighed to prepare stock solutions at concentrations of 65.33 mM, 330 mM, 300 mM, and 250 Units/mL, respectively. The four stock solutions described above were each added to an appropriate amount of buffer, and the mixture was mixed well by gently inverting up and down. The final concentrations of NADP, G6P, MgCl2, and G6PDH in the NADPH regeneration system were 2.65 mM, 10.2 mM, 6.12 mM, and 2.45 Units/mL, respectively. • (6) Incubation process: The incubation was completed in 96-well plates. Several incubation plates were prepared and named T0, T5, T10, T20, T40, T60, and NCF60, respectively. The first 6 plates corresponded to reaction time points of 0 min, 5 min, 10 min, 20 min, 40 min, and 60 min, respectively. The NCF60 plate was incubated for 60 min with potassium phosphate buffer replacing the NADPH regeneration system solution. Samples under all conditions were prepared in triplicate.
(§3) 2 µL of the test compound or control compound and 100 µL of microsome working solution (containing 1 mg/mL liver microsome protein) were added to each of the T0, T5, T10, T20, T40, T60, and NCF60 plates, and only the microsome working solution was added to the Blank 60 plate. The plates described above were then pre-incubated in a 37 °C water bath for about 10 min.
(§4) After the pre-incubation was completed, 98 µL of the NADPH regeneration system working solution was added to each sample well except for the NCF60 plate and the T0 plate to initiate the reaction, and 98 µL of potassium phosphate buffer was added to each well of the NCF60 plate. Therefore, for the sample wells containing the test sample or control substance working solution, the final concentrations of TC and testosterone in the reaction were 1 µM and 4 µM, respectively, the concentration of liver microsomes was 0.5 mg/mL, and the final concentrations of DMSO and acetonitrile in the reaction system were 0.01% (v/v) and 0.99% (v/v), respectively.
(§5) After incubation for an appropriate time (e.g., 5 min, 10 min, 20 min, 40 min, and 60 min), 600 µL of a termination solution (an acetonitrile solution containing 100 ng/mL […]) was added to each test compound sample well and control compound sample well to terminate the reaction. […]

[2] = Liver microsome stability experiment (SD rat); type: in vitro ADME; settings: for CLint scaled at 1 µM: SD, rat, liver microsomes, pH 7.4, SD rat liver microsomes; for half-life at 1 µM: pH 7.4, SD rat liver microsomes
Protocol: as §1, §2, §3, §4, §5

[3] = 0.5 mg/mL, 1 µM, read-out: CL(liver)
[4] = 0.5 mg/mL, 1 µM, read-out: CLint(liver)
[5] = read-out: Clearance rate classification

Row | CLint scaled at 1 µM [1, 3] [mL/min/kg] | CLint scaled at 1 µM [1, 4] [mL/min/kg] | CLint scaled at 1 µM [1, 5] [mL/min/kg] | half-life at 1 µM ([1]; 0.5 mg/mL, 1 µM) [h] | CLint scaled at 1 µM [2, 3] [mL/min/kg] | CLint scaled at 1 µM [2, 4] [mL/min/kg] | CLint scaled at 1 µM [2, 5] [mL/min/kg] | half-life at 1 µM ([2]; 0.5 mg/mL, 1 µM) [h] | SMILES
1 | 6.9 | 10.3 | 8.9 to 48.3 | 2.01 | 18.9 | 28.7 | 23.7 to 129 | 1.45 | O=c1nc(OCc2cc(F)c(Oc3ccnc(C(F)(F)F)c3)c(F)c2)cc2n1C[C@H]1CCCN21 [Comparative Example 1, reference compound]
2 | < 5.06 | < 6.69 | ≤ 8.9 | > 3.11 | < 10.8 | < 13.4 | ≤ 23.7 | > 3.11 | O=c1nc(OCc2cc(F)c(Oc3ccnc(C(F)(F)F)c3)c(F)c2)cc2n1C[C@H]1CCN21 [Example 34-R]
